Consider one molecule from paper PMC9157788, “Design, Synthesis, and Apoptosis-Promoting Effect Evaluation of Rhopaladins’ Analog 4-Arylidene-5-Oxopyrrolidine Derivatives” (Frontiers in Chemistry, 2022).

One experiment has as its system C-33A cells. The experiment can be described thus: MTT cell viability assay, C-33A. The experiment is classed as cell-based. Conditions: Homo sapiens, 48 h, read-out: Half inhibitory concentration (IC50), C-33A. As to the method:
(§1) HepG2 (human epidermoid hepatocellular carcinoma cell), 7402 (human epidermoid hepatocellular carcinoma cell), C-33A (human epidermoid cervical carcinoma cell), and HeLa (human epidermoid cervical adenocarcinoma cell) were incubated in Dulbecco’s modified Eagle’s medium (DMEM), which was purchased from Gibco (Grand Island, NY, United States). SiHa cells (human epidermoid cervical squamous cell carcinoma) were incubated in minimum essential medium (MEM, also from Gibco). CaSki (human epidermoid cervical carcinoma cell) and LO2 (human normal liver cell) were incubated in minimum essential medium (MEM, also from Gibco). All cells were maintained at 37°C in a humidified incubator with 5% carbon dioxide, and the media contained 10% fetal bovine serum (FBS, Corning, United States) and 1% penicillin–streptomycin antibiotic solution (Corning, United States). SiHa and CaSki were bought from the China Center for Type Culture Collection (CCTCC). The other five types of cancer cell lines were obtained from the Experiment Center of Medicine, Sinopharm Dongfeng Hospital, Hubei University of Medicine. The compounds were dissolved in dimethyl sulfoxide (DMSO, MP Biomedicals, United States), and cisplatin was purchased from Aladdin, Shanghai, China. The control (0 μM) group was treated with DMSO only in the same conditions, and the DMSO content in the medium was less than 0.1%.
(§2) Cell viability was measured by a 3-(4,5-dimethylthiazol-2-yl)-2,5-diphenyltetrazolium bromide (MTT, MultiSciences, China) assay. The specific experimental steps referred to our previous research ([Zhu et al., 2020]). For each cell line, cells were digested and seeded in 96-well plates at a density of 1 × 10^3 cells/well. […] Then, the formed formazan crystals were dissolved in DMSO, and the plates were estimated in a […] microplate reader (BioTek Inc., Bio-Tek MQX200) at a wavelength of 490 nm. Optical density (OD) values were obtained, and the inhibition rate and IC50 of each compound on different cells were calculated by GraphPad Prism 8.0.1 software. […]

A further experiment deals with Bcl-2. The experiment can be described thus: Western blot, Bcl-2 expression in HepG2 cells. It counts as cell-based, human. The conditions noted are these: HepG2, 25 μM, 48 h, vs DMSO control, p < 0.01. The procedure: The experimental steps of the Western blotting assay referred to Lin’s study ([Lin et al., 2020]). After treatment with different concentrations of RPDPRH (0, 6.25, 12.5, and 25 μM) for 48 h, hepatocarcinoma cells were lysed with an ice-cold RIPA protein lysis buffer (Beyotime, China). Total cell lysates were prepared with RIPA lysis buffer containing phosphatase inhibitors (Roche, China) and protease inhibitors (MedChemExpress, United States). Total cell lysates were centrifuged at 10,000 g for 10 min at 4°C to obtain the supernatant. The protein concentration was detected according to the BCA Protein Assay Kit (Beyotime, China). Then, 5× SDS loading buffer (Beyotime, China) was added to the supernatant and boiled at 100°C for 10 min. The obtained protein samples were stored at −80°C.
The protein samples (20 μg) were resolved on 4% concentration glue and 12% separating glue and prepared according to the SDS-PAGE Gel Quick Preparation Kit procedure (Beyotime, China). After electrophoresis at 80 V for 1.5–2 h, the proteins were wet-transferred onto a polyvinylidene difluoride membrane (PVDF, Millipore) at 300 mA for 1–1.5 h. […]

In the next experiment the test system is HepG2 cells. The experiment can be described thus: MTT cell viability assay, HepG2. It counts as cell-based. Conditions: Homo sapiens, 48 h, read-out: Half inhibitory concentration (IC50), HepG2. As to the method:
as §1, §2

Regarding `O=C1/C(=C/c2ccc(Cl)cc2)CC(/C=C/c2ccc(Cl)cc2)(C(=O)NC2CCCCC2)N1c1ccc(F)cc1` (stereo not drawn) [RPDPRH, (2E, 4E)-4-(4-chlorobenzylidene)-2-(4-chlorostyryl)-N-cyclohexyl-1-(4-fluorophenyl)-5-oxopyrrolidine-2-carboxamide], the IC50 with C-33A cells was determined as 4.66 µM; in the experiment on HepG2 cells it was 12.4 µM. Also, in the experiment with Bcl-2, the “expression of anti-apoptotic protein Bcl-2” value was “decrease”.
